ChEMBL document CHEMBL2401682, “Evaluation of Jatropha isabelli natural products and their synthetic analogs as potential antimalarial therapeutic agents” (Eur J Med Chem, 2013)
Converted amounts (≈) assume the structure as drawn.

Assays:
Raji = experiment: Cytotoxicity against human Raji cells after 72 hrs by celltiter-glo assay; assay type: cell-based
HepG2 = experiment: Cytotoxicity against human HepG2 cells after 72 hrs by celltiter-glo assay; assay type: cell-based; settings: HepG2, 72 h
Plasmodium falciparum [1] = experiment: Antimalarial activity against chloroquine and pyrimethamine-resistant Plasmodium falciparum K1 infected in O-positive erythrocytes assessed as parasite growth inhibition after 72 hrs by DNA staining-based assay; assay type: functional, organism-based; settings: K1, 72 h
Plasmodium falciparum [2] = experiment: Antimalarial activity against chloroquine-sensitive Plasmodium falciparum 3D7 infected in O-positive erythrocytes assessed as parasite growth inhibition after 72 hrs by DNA staining-based assay; assay type: functional, organism-based; settings: 3D7, 72 h
[3] = Permeability of the compound by PAMPA; assay type: ADME; settings: read-out: permeability
[4] = Solubility of the compound; assay type: physicochemical
HEK293 = experiment: Cytotoxicity against HEK293 cells after 72 hrs by celltiter-glo assay; assay type: cell-based; settings: Homo sapiens, HEK293, 72 h
BJ = experiment: Cytotoxicity against human BJ cells after 72 hrs by celltiter-glo assay; assay type: cell-based
[5] = Half life in mouse liver microsomes; assay type: ADME, Microsome
[6] = Plasma protein binding in mouse; assay type: ADME, cell-free; settings: read-out: PPB (converted)
[7] = Solubility of the compound at pH 3 to 7; assay type: physicochemical; settings: buffer
[8] = Plasma protein binding in human; assay type: ADME, cell-free; settings: read-out: PPB (converted)
[9] = Efflux ratio of permeability in human Caco2 cells; assay type: ADME, cell-based; settings: Caco-2
[10] = Half life in mouse plasma; assay type: ADME, cell-free
[11] = Half life in human liver microsomes; assay type: ADME, Microsome
[12] = Half life in human plasma; assay type: ADME, cell-free

Row | Compound | EC50 (Raji) [µM] | EC50 (HepG2) [µM] | EC50 (Plasmodium falciparum [1]) [µM] | EC50 (Plasmodium falciparum [2]) [µM] | Papp [3] [×10⁻⁶ cm/s] | solubility [4] [µg/mL] | EC50 (HEK293) [µM] | EC50 (BJ) [µM] | half-life [5] [min] | fraction unbound [6] | solubility [7] [µg/mL] | fraction unbound [8] | efflux ratio [9] | half-life [10] [min] | half-life [11] [min] | half-life [12] [min]
1 | CC1=C2CC(C)(C)/C(c3ccc(C(F)(F)F)cc3)=C/C(=O)/C(C)=C\C3=C[C@H](C)C[C@]3(O2)C1=O | 26 | 26 | 5.88 | 6.08 | 106 | 17 (≈ 37.2 µM) | 26 | 26 |  |  |  |  |  |  |  | 
2 | CC1=C2CC(C)(C)/C=C/C(=O)/C(C)=C\C3=C[C@H](C)C[C@]3(O2)C1=O [JATROPHONE] | 26 | 6.09 | 5.41 | 15 | 525 |  | 6.09 | 1.93 | 5.4 | 0.26 | 20 (≈ 64 µM) | 0.26 | 1.5 | 12.6 | 6 | 7.8
